Assay: Inhibition of HIV1 YU2 gp120 binding to CD4 expressing Cf2Th-CD4/CCR5 cells assessed as inhibition of viral infection after 48 hrs

SMILES	IC50 [µM]
O=C(NCC1CCN(CCN2CCOCC2)C1)C(=O)Nc1ccc(Cl)c(F)c1 (centres undefined) [N1-(4-chloro-3-fluorophenyl)-N2-((1-(2-morpholinoethyl)pyrrolidin-3-yl)methyl)oxalamide]	> 100
O=C(NCCc1cnc[nH]1)Nc1ccc(Cl)c(Cl)c1 [1-(2-(1H-imidazol-5-yl)ethyl)-3-(3,4-dichlorophenyl)urea]	> 100
O=C(NCc1[nH]nc2c1CCCCC2)C(=O)Nc1ccc(Cl)c(F)c1 [N1-(4-chloro-3-fluorophenyl)-N2-((1,4,5,6,7,8-hexahydrocyclohepta[c]pyrazol-3-yl)methyl)oxalamide]	> 100
O=C(NCC1COc2ccccc2O1)C(=O)Nc1ccc(Br)cc1 (centres undefined) [N1-(4-bromophenyl)-N2-((2,3-dihydrobenzo[b][1,4]dioxin-2-yl)methyl)oxalamide]	> 100
O=C(CSc1[nH]c(=O)nc2c1CCCC2)Nc1ccc(Cl)cc1 [N-(4-chlorophenyl)-2-(2-oxo-1,2,5,6,7,8-hexahydroquinazolin-4-ylthio)acetamide]	> 100
CC1(C)CC(NC(=O)C(=O)Nc2ccc(N=[N+]=[N-])cc2)CC(C)(C)N1 [N1-(4-azidophenyl)-N2-(2,2,6,6-tetramethylpiperidin-4-yl)oxalamide]	> 100
O=C(Nc1ccnc(=O)[nH]1)c1sc2cc(Cl)ccc2c1Cl [3,6-dichloro-N-(2-oxo-1,2-dihydropyrimidin-4-yl)benzo[b]thiophene-2-carboxamide]	> 100
CC1(C)CC(NC(=O)C(=O)Nc2ccc3cc[nH]c3c2)CC(C)(C)N1 [4-(2-(1H-indol-6-ylamino)-2-oxoacetamido)-2,2,6,6-tetramethylpiperidinium]	> 100
CC1(C)CC(NCC(=O)Nc2ccc(Cl)c(F)c2)CC(C)(C)N1 [N-(4-chloro-3-fluorophenyl)-2-(2,2,6,6-tetramethylpiperidin-4-ylamino)acetamide]	> 100
CCN1CCCC1CNC(=O)C(=O)Nc1ccc(Cl)c(F)c1 (centres undefined) [N1-(4-chloro-3-fluorophenyl)-N2-((1-ethylpyrrolidin-2-yl)methyl)oxalamide]	85.2
CC1(C)O[C@@H](CN)[C@H](CNC(=O)C(=O)Nc2ccc(Cl)c(F)c2)O1 [N1-(((4S,5S)-5-(aminomethyl)-2,2-dimethyl-1,3-dioxolan-4-yl)methyl)-N2-(4-chloro-3-fluorophenyl)oxalamide]	76.6
CN1CCC(CNC(=O)C(=O)Nc2ccc(Cl)c(F)c2)(N(C)C)CC1 [N1-(4-chloro-3-fluorophenyl)-N2-((4-(dimethylamino)-1-methylpiperidin-4-yl)methyl)oxalamide]	> 100
Cc1nn(C)cc1CN(C)CC(=O)Nc1ccc(Br)cc1 [N-(4-bromophenyl)-2-(((1,3-dimethyl-1H-pyrazol-4-yl)methyl)(methyl)amino)acetamide]	> 100
CC(C)(C)c1cc(CNC(=O)C(=O)Nc2ccc(Cl)c(F)c2)[nH]n1 [N1-((5-tert-butyl-1H-pyrazol-3-yl)methyl)-N2-(4-chloro-3-fluorophenyl)oxalamide]	> 100
CN1CCCC(ONC(=O)C(=O)Nc2ccc(Cl)c(F)c2)C1 (centres undefined) [N1-(4-chloro-3-fluorophenyl)-N2-(1-methylpiperidin-3-yloxy)oxalamide]	> 100
NC(=O)C1CCN(CCC(=O)Nc2ccc(Br)cc2)CC1 [cis-1-(3-(4-bromophenylamino)-3-oxopropyl)-4-carbamoylpiperidinium]	> 100
O=C(Nc1ccc(Cl)c(F)c1)C(=O)Nc1cccc2[nH]ncc12 [N1-(4-chloro-3-fluorophenyl)-N2-(1H-indazol-4-yl)oxalamide]	> 100
O=C(NCC(c1ccc(Cl)cc1)N1CCCC1)C(=O)Nc1ccc(Cl)c(F)c1 (centres undefined) [N1-(4-chloro-3-fluorophenyl)-N2-(2-(4-chlorophenyl)-2-(pyrrolidin-1-yl)ethyl)oxalamide]	61.4
CC1(C)C2CCC1(C)C(NC(=O)C(=O)Nc1ccc(Cl)c(F)c1)C2 (centres undefined) [N1-(4-chloro-3-fluorophenyl)-N2-(1,7,7-trimethylbicyclo[2.2.1]heptan-2-yl)oxalamide]	> 100
CCc1n[nH]c(NC(=O)C(=O)Nc2ccc(Cl)c(F)c2)c1CC [N1-(4-chloro-3-fluorophenyl)-N2-(3,4-diethyl-1H-pyrazol-5-yl)oxalamide]	> 100
CC(C)c1cccc(NC(=O)C(=O)NC2CC(C)(C)NC(C)(C)C2)c1 [N1-(3-isopropylphenyl)-N2-(2,2,6,6-tetramethylpiperidin-4-yl)oxalamide]	> 100
CC1(C)CC(NC(=O)C(=O)Nc2ccc(-n3cc(-c4ccccc4)nn3)cc2)CC(C)(C)N1 [N1-(4-(4-phenyl-1H-1,2,3-triazol-1-yl)phenyl)-N2-(2,2,6,6-tetramethylpiperidin-4-yl)oxalamide]	> 100
O=C(Nc1ccc(Cl)cc1)c1cc(-n2cnnc2)n[nH]1 [N-(4-chlorophenyl)-5-(4H-1,2,4-triazol-4-yl)-1H-pyrazole-3-carboxamide]	> 100
CN(C(=O)C(=O)Nc1ccc(Cl)c(F)c1)C1CC(C)(C)NC(C)(C)C1 [N1-(4-chloro-3-fluorophenyl)-N2-methyl-N2-(2,2,6,6-tetramethylpiperidin-4-yl)oxalamide]	> 100
Cc1cc(NC(=O)C(=O)c2c[nH]c3ccccc23)ccc1Br [N-(4-bromo-3-methylphenyl)-2-(1H-indol-3-yl)-2-oxoacetamide]	> 100

SMILES	IC50 [µM]
CC1(C)CC(NC(=O)C(=O)Nc2ccc(Cl)cc2F)CC(C)(C)N1 [N1-(4-chloro-2-fluorophenyl)-N2-(2,2,6,6-tetramethylpiperidin-4-yl)oxalamide]	> 100
O=C(NCc1ccco1)C(=O)Nc1ccc(Br)cc1 [N1-(4-bromophenyl)-N2-(furan-2-ylmethyl)oxalamide]	> 100
Cc1cccc(-c2cc(C(=O)Nc3ccc(Cl)cc3)[nH]n2)c1O [N-(4-chlorophenyl)-5-(2-hydroxy-3-methylphenyl)-1H-pyrazole-3-carboxamide]	> 100
CC(C)(CNC(=O)C(=O)Nc1ccc(Cl)c(F)c1)N1CCOCC1 [N1-(4-chloro-3-fluorophenyl)-N2-(2-methyl-2-morpholinopropyl)oxalamide]	> 100
COc1cccc(NC(=O)C(=O)Nc2ccc(Cl)cc2)c1 [N1-(4-chlorophenyl)-N2-(3-methoxyphenyl)oxalamide]	> 100
CC(C)C1CCN(CCC(=O)Nc2ccc(Br)cc2)CC1 [trans-1-(3-(4-bromophenylamino)-3-oxopropyl)-4-isopropylpiperidinium]	> 100
CC(NC(=O)C(=O)Nc1ccc(Cl)c(F)c1)c1ccc(S(N)(=O)=O)cc1 (centres undefined) [N1-(4-chloro-3-fluorophenyl)-N2-(1-(4-sulfamoylphenyl)ethyl)oxalamide]	> 100
O=C(NCc1ccccc1CN1CCOCC1)C(=O)Nc1ccc(Cl)c(F)c1 [N1-(4-chloro-3-fluorophenyl)-N2-(2-(morpholinomethyl)benzyl)oxalamide]	20.5
CN1CCC(NC(=O)C(=O)Nc2ccc(Cl)c(F)c2)CC1 [N1-(4-chloro-3-fluorophenyl)-N2-(1-methylpiperidin-4-yl)oxalamide]	> 100
O=C(NC[C@@H]1COC2(CCCC2)O1)C(=O)Nc1ccc(Cl)cc1 [(R)-N1-(1,4-dioxaspiro[4.4]nonan-2-ylmethyl)-N2-(4-chlorophenyl)oxalamide]	> 100
CC1(C)CC(NC(=O)C(=O)Nc2ccc(Cl)c(F)c2)CC(C)(C)O1 [N1-(4-chloro-3-fluorophenyl)-N2-(2,2,6,6-tetramethyltetrahydro-2H-pyran-4-yl)oxalamide]	> 100
CC(CC(=O)Nc1ccc(Br)cc1)Nc1cccc(CO)c1 (centres undefined) [N-(4-bromophenyl)-3-(3-(hydroxymethyl)phenylamino)butanamide]	> 100
C[C@H]1CCCN(CCC(=O)Nc2ccc(Cl)cc2)C1 [(3S)-1-(3-(4-chlorophenylamino)-3-oxopropyl)-3-methylpiperidinium]	> 100
CN(C(=O)C(=O)NC1CC(C)(C)NC(C)(C)C1)c1ccc(Cl)cc1 [N1-(4-chlorophenyl)-N1-methyl-N2-(2,2,6,6-tetramethylpiperidin-4-yl)oxalamide]	> 100
CC1(C)CC(CNC(=O)C(=O)Nc2ccc(Cl)c(F)c2)CC(C)(C)N1 [N1-(4-chloro-3-fluorophenyl)-N2-((2,2,6,6-tetramethylpiperidin-4-yl)methyl)oxalamide]	33
O=C(Nc1ccc(Cl)c(F)c1)C(=O)NC1CCNC2(CCC2)C1 (centres undefined) [N1-(4-chloro-3-fluorophenyl)-N2-(5-azaspiro[3.5]nonan-8-yl)oxalamide]	38.5
O=C(COc1ccc(Cl)cc1)Nc1cc(=O)[nH]c(=O)[nH]1 [2-(4-chlorophenoxy)-N-(2,6-dioxo-1,2,3,6-tetrahydropyrimidin-4-yl)acetamide]	> 100
CN(C)C(CNC(=O)C(=O)Nc1ccc(Cl)c(F)c1)c1ccco1 (centres undefined) [N1-(4-chloro-3-fluorophenyl)-N2-(2-(dimethylamino)-2-(furan-2-yl)ethyl)oxalamide]	> 100
CN1CCCN(C(=O)COc2ccc(Cl)cc2)CC1 [4-(2-(4-chlorophenoxy)acetyl)-1-methyl-1,4-diazepan-1-ium]	> 100
CC1(C)CC(NC(=O)C(=O)Nc2ccc(-n3cc(CCc4ccccc4)nn3)cc2)CC(C)(C)N1 [N1-(4-(4-phenethyl-1H-1,2,3-triazol-1-yl)phenyl)-N2-(2,2,6,6-tetramethylpiperidin-4-yl)oxalamide]	> 100
C[C@@H](Sc1nc(N)cc(=O)[nH]1)C(=O)Nc1ccc(Cl)cc1 [(R)-2-(6-amino-4-oxo-1,4-dihydropyrimidin-2-ylthio)-N-(4-chlorophenyl)propanamide]	> 100
CCn1ncnc1C(C)NC(=O)C(=O)Nc1ccc(Cl)c(F)c1 (centres undefined) [N1-(4-chloro-3-fluorophenyl)-N2-(1-(1-ethyl-1H-1,2,4-triazol-5-yl)ethyl)oxalamide]	> 100
CC1(C)CC(=NNC(=O)c2[nH]nc3c2CCCC3)CC(C)(C)N1 [2,2,6,6-tetramethyl-4-(2-(4,5,6,7-tetrahydro-1H-indazole-3-carbonyl)hydrazono)piperidinium]	> 100
COc1cc(Cl)ccc1NC(=O)C(=O)NC1CC(C)(C)NC(C)(C)C1 [N1-(4-chloro-2-methoxyphenyl)-N2-(2,2,6,6-tetramethylpiperidin-4-yl)oxalamide]	> 100
